The results in this text go back to patent US20260083122A1, “METHOD AND AGENT FOR INACTIVATING BACTERIA OR VIRUSES, AND ANTIVIRAL BASE MATERIAL USING SAME” (NISSAN MOTOR CO., LTD., priority 2022, published 2026).

The target of this experiment is S-RBD-His (Omicron) (SARS-CoV-2 B.1.1.529 (Omicron) Spike RBD Protein) (Severe acute respiratory syndrome coronavirus 2, UniProt P0DTC2, E484A/G339D/G446S/G496S/K417N/N440K/N501Y/Q493R/Q498R/S371L/S373P/S375F/S477N/T478K/Y505H).

Regarding `O=[N+]([O-])[O-].O=[N+]1C2CC3CC(C2)CC1C3` [AZADO-Oxo], the “shift of fluorescence peak (binding amount between spike protein and ACE2)” value is on record as “a certain inactivation effect was obtained”.
